PMC6367941 (Journal of computer-aided molecular design, 2018)

Experiment: UV-metric pKa measurement with methanol cosolvent
Assay type: physicochemical
Conditions: Yasuda-Shedlovsky extrapolation to 0% methanol from psKa in ISA methanol:water mixtures, 25.0 ± 0.5 °C, ~150 mM KCl, mean ± SEM of three replicates

FC(F)(F)c1cccc(Nc2ncnc3ccccc23)c1 [SM02]
pKa1: 5.03 ± 0.01

COc1cccc(Nc2ncnc3ccccc23)c1.Cl [SM09]
pKa1: 5.37 ± 0.01
